One assay deals with BV-2 cells. The assay can be described thus: Cell viability (MTT analysis) of beta-amyloid treated BV-2 cells. It counts as cell-based. The settings on record: for viability at 0.05 µM: Mus musculus. As for the experimental part: Beta-amyloid (Aβ25-35, Sigma Chemical Co., St. Louis, Mo., USA) was diluted with aseptic desalted water and preservative solution (1 mM, GIBCO), and kept in aliquots at −70° C. To the treatment of beta-amyloid, beta-amyloid preservative solution was diluted to desired concentrations in a treatment medium (DMEM, GIBCO). The reagents were newly provided as a preservative solution (10 mM) under DMSO (dimethylsulfoxide), and diluted in treatment medium to desired concentrations.
BV-2 microglia cells (allotted from Pharmacology Division of Ajou University) were cultivated in DMEM (Dulbecco's Modified Eagle's Medium) supplemented with 5% fetal bovine serum (Invitrogen, Carlsbad, Calif., USA), sou/Ml penicillin (Invitrogen, Carlsbad, Calif., USA), and 50 μg/Ml streptomycin (Invitrogen, Carlsbad, Calif., USA) under the atmosphere condition with 5% CO2 and 95% air at 37° C. The medium was replaced once a day, the cells were plate-cultured in a density according to the scale of each experiment.
BV-2 cells were plate-cultured in 96-well plate at the density of 5×10^4, the cell viability was measured according to a conventional MTT analysis method and lactate dehydrogenase (LDH) analysis method. The MTT analysis depends on the metabolism ability of mitochondria of living cell, and reflexes intracellular redox states. The cultured cells were treated with MTT a solution (final concentration: 1 mg/Ml) for 4 hours. Deep blue formazan crystal generated in the original cells was dissolved in a lysis buffer, and then, the absorbance was detected at 595 nm with microplate reader. The LDH activity released from the culture medium was detected, which was evaluated as a cell death index. The culture medium was added to a reagent (test, Sigma Chemical Co, St. Louis, Mo., USA) containing sodium lactate, NADH and sodium pyruvate, and then, the absorbance reduction by NADH at 340 nm was measured. The result was calculated assuming that the LDH activity in homogenate solution of the non-treated control is 100%.
[…] For microscope analysis, BV-2 cells were used in 6-well plate at the density of 5×10^5 cells/well, for MTT analysis, BV-2 cells were used in 96-well plate at the density of 5×10^4 cells/well.
The obtained prevention effects of KHG25967 compound on toxicity induced by beta-amyloid in BV-2 cells were FIGS. 1A and 1b.
For MTT analysis, BV-2 cells were used on 96-well plate in the density of 5×10^4 cells/well. The quantitative analysis results (unit: %) for the cell viability obtained by MTT analysis were shown in Table 2, wherein the values are represented by the average of three experiments per each concentration.

The next assay deals with interleukin-1beta. The assay can be described thus: ELISA of interleukin-1beta in LPS-treated BV-2 cells. Type of assay: cell-based. The settings on record: LPS 1 μg/ml for 2 hours, then 50 nM KHG25967 for 6 hours; compared to LPS only as 100%. Here is the method:
Lipopolysaccharide (LPS)-treated cells (6-well of 5×10^5 cells/3 Ml, Fluka, Sigma-Aldrich, St. Louis, Mo., USA) were collected, and washed with phosphate-buffered saline (PBS). The cells were centrifuged, and then dissolved in pro-prep lysis buffer at 4° C. Interleukin-1 beta and tumor necrosis factor-alpha in the cell lysis solution wherein the cells were dissolved were measured by enzyme-linked immunosorbent analysis plate (R&D systems inc, Minneapolis, Minn., USA). The absorbance at 450 nm was measured using microplate reader. In addition, cytokine was measured using a cytokine measuring system (R&D systems inc, Minneapolis, Minn., USA).
BV-2 cells were pre-treated with 1 μg/ml of LPS (Fluka, Sigma-Aldrich, St. Louis, Mo., USA) for 2 hours, and then, further treated with 50 nM KHG25967 for 6 hours. The changed amounts of cytokines of tumor necrosis factor-alpha and interleukin-1beta were measured from lysate solution where the cells were dissolved in cell lysate solution (Intron Biotechnology, Seoul, Korea).

The results in this text go back to US9012481B2, “Benzoarylureido compounds, and composition for prevention or treatment of neurodegenerative brain disease containing the same” (Korea Institute of Science and Technology, priority 2009, dated 2015).

Like-named read-outs stand apart in the source and are kept apart here.

As usually defined, the viability is a read-out of living cells in per cent, often relative to untreated cells. With `O=C(O)CNC(=O)Nc1nc2ccccc2s1` [KHG25967, 2-(3-benzo[d]thiazole-2-ylureido)acetic acid], in the assay on BV-2 cells (KHG25967 pre-treated prior to the addition of beta-amyloid, similar to treatment after beta-amyloid), the “protection against nervous cell degeneration by beta-amyloid, compound pre-treated” value is reported as “shows a protective effect against nervous degeneration”. For the same compound, the viability at 0.05 µM came to 83% with BV-2 cells (BV-2, 50 nM KHG25967 for 24 hours after 50 μM beta-amyloid for 2 hours, beta-amyloid only control 35%, read-out: cell viability (FIG. 1B, MTT analysis)) and 83% in the assay on BV-2 cells (compound 50 nM for 24 hours after 50 μM beta-amyloid for 2 hours, BV-2 cells, average of three experiments, read-out: cell viability by MTT analysis). Moreover, the “suppression of interleukin-1beta level (FIG. 3A)” value in the assay with interleukin-1beta is 70%.
